# Read-outs that look alike come from different tables or passages of the source.
# Tests used:
# [1] = system: B16V mouse melanoma cells; experiment: Depigmentation effect on melanoma cell cultures; assay type: cell-based; settings: 0.6 mM tyrosine and 10 nM α-MSH, 96 h, read-out: IC50, inhibition of pigmentation
# Method: B16V mouse melanoma cells are disseminated in a 96-well micro-titre plate in a concentration of 7.5 x 10^3 cells/well. After cultivation for 24 h at 37°C and 5% CO2 in RPMI medium, enriched with 10% foetal calf serum, various concentrations of the test substances and 0.6 mM tyrosine and 10 nM α-MSH (α-melanocyte stimulating hormone) are added and incubated for a further 96 h. The maximum concentration of the test substances used corresponds to 0.1 times the value of the IC20 value of the cytotoxicity assay. Only tyrosine and α-MSH are added to the controls. After incubation, sodium hydroxide solution (final concentrations: 1 M) is added to the culture medium and the absorption (A) is measured after 3 h at 400 nm.
# From the inhibition of pigmentation (%) in a series of dilutions of test compounds, the IC50 for each test compound is calculated. This is the concentration of a test compound at which pigmentation is inhibited by 50%.
# SIRT1 = SIRT1 assay (in vitro), SIRT1 expression by immunofluorescence in NHDF cells; assay type: cell-based, human; settings: 10 µM, 48 h, mean values of at least 2 independent experiments
# Method: NHDF cells (normal human dermal fibroblasts) were seeded in 96-well plates. After 24 h cultivation at 37 °C and 5% CO2 in DMEM (Dulbecco's Modified Eagle Medium), cells were treated with test substances for another 48 h. After washing the cells with PBS (phosphate buffered saline), the cells were fixed with paraformaldehyde and permeabilized. Then they were washed again and blocked with BSA (bovine serum albumen), followed by incubation with […]. After extensive washing, the fluorescence is measured in a microplate reader and fluorescence images were recorded on a fluorescence microscope with an attached […].
# The stimulation of SIRT1 expression was calculated by: Stimulation of SIRT1expression[%] = ((RFU test substance−RFU background)/(RFU control−RFU background) × 100)−100 [formula] • RFU test substance = relative fluorescent units of the wells with test substance, stained completely • RFU control = relative fluorescent units of the wells without test substance, stained completely • RFU background = relative fluorescent units of the wells without test substance, stained only with secondary antibody.
# 20S proteasome = target: T1, 20S proteasome (Homo sapiens, UniProt P28074); experiment: 20S Proteasome Assay (in vitro), chymotrypsin-like protease activity in NHDF cells; assay type: cell-based; settings: 72 h
# T1 construct: NHDF (normal human dermal fibroblasts) cells are disseminated in a 96-well microtiter plate; endogenous in cells; host or cells: NHDF (normal human dermal fibroblasts)
# [2] = system: HHFSC (Human Hair Follicle Stem Cells); experiment: Stem cell protection (in vitro): inhibition of UVB-induced apoptosis, caspase 3/7 chemiluminescence; assay type: cell-based; settings: light or radiation study, 25 mJ/cm^2 UVB, relative to control, read-out: Inhibition of UV induced apoptosis
# Method: HHFSC (Human Hair Follicle Stem Cells) isolated from hair follicle bulge (Celprogen) were cultivated in culture ware pre-coated with Human Hair Follicle Stem Cell Extra-cellular Matrix (Celprogen). The cells were incubated 2 h prior to and 16 h after UVB irradiation with test compounds. Cells were irradiated with 25 mJ/cm^2 UVB in the presence of buffer solution. Apoptosis induction was evaluated by caspase 3/7 protein expression (Caspase-Glo 3/7, Promega) and quantified by chemiluminescence measurement.
# Heme oxygenase-1 = Heme oxygenase-1 expression (in vitro), Western blot in NHDF cells; assay type: cell-based, human; settings: 24 h
# Method: NHDF (normal human dermal fibroblasts) cells were disseminated in a 6-well plate. After cultivation in fully enriched medium (DMEM, 10% FCS) for 48 h, the serum content was reduced to 0.1% to synchronize the cell cycle. Various concentrations of the test substances, the negative control (untreated cells) and tert.- butylhydrochinon as positive control, are added and incubated for a further 24 h. After cell lysis, the protein amount was determined using the Biorad BCA assay. All samples were adjusted to the same protein level before application on a fast Criterion Gel (Biorad) to perform electrophoresis for 20 minutes at 300 V. Thereafter the proteins were transferred to a PVDF membrane on a semi-dry blotter (30 minutes, 25 V). The blotted membrane is blocked for 4 hours in a 5% milk powder solution in TBST at 4°C. After washing, the membrane is incubated with the first antibody solution HO-1 from abcam (1:500 in 1% milk powder in TBST) over night. After this, washing is repeated and the membrane has to be incubated for 1 h in the second antibody solution (goat anti mouse coupled to HRP; 1:800 in 1% milk powder). […] The resulting band pattern is detected with a chemiluminescence sensitive camera system (Vilber Loumat). The quantification was done by densitometry. The up-regulation is calculated relative to control.
# Hyaluronic acid = experiment: Hyaluronic Acid Assay (in vitro), competitive ELISA in NHDF cells; assay type: cell-based, human; settings: 72 h
# Method: NHDF (normal human dermal fibroblasts) cells were disseminated in a 96-well microtiter plate in a concentration of 2 x 10^4 cells/well (DMEM, 10% FCS). After cultivation in fully enriched medium (DMEM, 10% FCS) for 48 h at 37°C and 5% CO2, the serum content was reduced to 0.1% to synchronize the cell cycle. Various concentrations of the test substances and TGF-beta1 as internal standard are added and incubated for a further 72 h. The maximum concentration of the test substances used corresponds to 0.2 times the value of the IC20 value of the cytotoxicity assay. Hyaluronic acid is quantified by a competitive ELISA (TECOmedical TE1017).
# The percent bound for each standard and unknown substance is calculated using the following equation: HA_[ng/ml] = (Astandardortestsubstance −Ablank)/(Azerostandard −Ablank) [formula] The abbreviations have the following meanings: • A(standard or test substance): Absorption of the wells with standard or test substance • A(zero standard): Absorption of the wells without HA standard • A(blank): Absorption of the wells without antibody, without peroxidase conjugate A standard curve is generated by plotting the percent B/ B0 as a function of the log HA concentration. The HA amount in the unknown samples is calculated by interpolating from the percent B / B0 values to […]. InductionofHA[%] = ((HAtestsubstance −HAwithoutcells)/(HAcontrol −HAwithoutcells) × 100) [formula] The abbreviations have the following meanings: • HA test substance: Amount of HA of the wells with test substance and with cells • HA control: Amount of HA of the wells without test substance, but with cells • HA without cells Amount of HA of the wells without cells
Molecule,IC50 ([1]; Mus musculus) [µM],SIRT1 protein induction (SIRT1) [%],20S proteasome stimulation relative to control (20S proteasome; 600 µM) [%],other results
"OC[C@H]1O[C@@H](Oc2ccc(O)cc2)[C@H](O)[C@@H](O)[C@@H]1O [beta-Arbutin, reference compound]",,,,IC50 [1]: 67 µM
"CCCCCCNC(=O)NC1CCCCC1 [Compound 3, 1-cyclohexyl-3-hexyl-urea]",18,,,
"CCC(C)NC(=O)NC1CCCCC1 (stereo not drawn) [Compound 2, 1-cyclohexyl-3-sec-butyl-urea]",290,57,105,
"CCCCC(CC)CNC(=O)NC1CCCCC1 (stereo not drawn) [Compound 5, 1-cyclohexyl-3-(2-ethylhexyl)urea]",12.6,19,,inhibition at 20 µM ([2]; 0.02 mM): 20.4%; inhibition at 200 µM ([2]; 0.2 mM): 95.3%; 20S proteasome stimulation relative to control (20S proteasome; 780 µM): 37%; HO-1 up-regulation relative to control (Heme oxygenase-1; 250 µM): 10.2-fold; Hyaluronic acid stimulation relative to control (Hyaluronic acid; 0.1 µM): 67%; Hyaluronic acid stimulation relative to control (Hyaluronic acid; 0.5 µM): 51%; Hyaluronic acid stimulation relative to control (Hyaluronic acid; 5 µM): 39%
"1,3-bis(2-methylcyclohexyl)urea [Compound 7]",,,85,
"CC(C)CN(C)C(=O)NC1CCCCC1 [Compound 6, 3-cyclohexyl-(1-iso-butyl-1-methyl)-urea]",,,,20S proteasome stimulation relative to control (20S proteasome; 23.5 µM): 39%
"O=c1cc(CO)occ1O [Kojic acid, 5-hydroxy-2-hydroxymethyl-4-pyranone, reference compound]",452,,,
"C[C@@H]1CCCC[C@H]1NC(=O)NCC1CCCCC1 (relative stereo) [Compound 4, 1-(cyclohexylmethyl)-3-(trans-2-methylcyclohexyl) urea]",14.6,,,
"CC(C)(C)c1cc(O)ccc1O [tert.-butylhydrochinon, tert.- butylhydrochinon, reference compound]",,,,HO-1 up-regulation relative to control (Heme oxygenase-1; 25 µM): 24.2-fold
"O=C(NC1CCCCC1)NC1CCCCC1 [Compound 1, 1,3-dicyclohexylurea]",,34,83,

# — EP2862852B1, “Urea derivatives for the protection of stem cells” (Symrise AG, priority 2013, dated 2015)
